According to US9486461B2, “Methods and compositions for inducing apoptosis by stimulating ER stress” (UNIVERSITY OF SOUTHERN CALIFORNIA, priority 2007, dated 2016):
“And” between values parts separate entries of the source, which are not always exact repeats. Equal values may be shown once.

What was measured:
CHOP protein = assay: Western blot of CHOP in various cancer cell lines; type: cell-based; conditions: glioblastoma, breast carcinoma, pancreatic carcinoma, Burkitt's lymphoma, multiple myeloma cell lines; Cxb 40 and 60 μM, DMC 30 and 50 μM; 48 hours
Protocol: Total cellular lysates were prepared and analyzed by Western blot analysis with specific antibodies to CHOP. As a control for equal loading, all blots were also analyzed with antibodies to actin (only one of these control blots is shown at the bottom). The tumor type of each cell line is indicated on the right.
Total cell lysates were prepared by lysis of cells with radioimmunoprecipitation assay buffer (28), and protein concentrations were determined using the bicinchoninic acid protein assay reagent (Pierce, Rockford, Ill.). For Western blot analysis, 50 Ag of each sample were processed as described (29). The primary antibodies were purchased from Cell Signaling Technologies (Beverly, Mass.), Cayman Chemical (Ann Arbor, Mich.), or Santa Cruz Biotechnology, Inc. (Santa Cruz, Calif.) and used according to the manufacturer's recommendations. The secondary antibodies were coupled to horseradish peroxidase and detected by chemiluminescence using the SuperSignal West substrate from Pierce. All immunoblots were repeated at least once to confirm the results.

[1] = test system: U87MG glioblastoma cell line; assay: MTT assay, U87MG; type: cell-based; conditions: Homo sapiens, U-87 MG, 48 h, read-out: IC50 (50% inhibition of cell growth)
Protocol: (§1) For comparison purposes to the known anti-multiple myeloma effects of bortezomib, the RPMI/8226 multiple myeloma cell line was included in (A).
(§2) 3-(4,5-Dimethylthiazol-2-yl)-2,5-diphenyltetrazolium bromide (MTT) assays were performed in 96-well plates with the use of 3.0×10^3 to 8.0×10^3 cells per well as described in detail elsewhere (19).

[2] = test system: T98G glioblastoma cell line; assay: MTT assay, T98G; type: cell-based; conditions: Homo sapiens, 48 h, read-out: IC50 (50% inhibition of cell growth)
Protocol: as §1, §2

U251 glioblastoma cells = assay: MTT assay, U251; type: cell-based, human; conditions: for IC50: Homo sapiens, U-251, U251, 48 h, MTT, read-out: IC50 (50% inhibition of cell growth)
Protocol: U251 glioblastoma cells were treated with different drugs, and various parameters of cell growth and cell death were comparatively analyzed. As controls, cells remained either non-treated (Co) or were treated with the solvent DMSO alone. (FIG. 8A) Cells were treated with 30 or 50 μM DMC for 48 hours and the effects on cell growth/survival and on cell death were determined by various assays. […] Below the three panels, the expression levels of the ER stress indicators CHOP, GRP78, and caspase 4 at the end of the 48 hour drug treatment is shown, as determined by Western blot analysis with specific antibodies (actin served as a loading control. (FIG. 8B) Cells were treated with various concentrations of different drugs for 48 hours, as indicated, and cell death was measured with the cell death ELISA kit. (FIG. 8C) Cells were treated with DMC or various coxibs and traditional NSAIDs for 48 hours, as indicated, and cell growth and survival was determined with the conventional MTT assay (control, non-treated cells were set at 100%). MTT assays were performed in 96-well plates with the use of 3.0-8.0×10^3 cells per well as described in detail elsewhere (34). In parallel, the expression levels of CHOP and GRP78 protein were determined by Western blot analysis. […]
as §2

[3] = test system: CHOP protein in U87 glioblastoma tumor tissue; assay: Immunohistochemical staining for CHOP in xenograft tumor tissue; type: in vivo, nude mice; conditions: for CHOP staining of tumor tissues: 30-180 mg/kg per day for 50 h, DMC and celecoxib already at lowest dosages
From the text: In all cases, representative sections are shown.
Immunohistochemical analysis of protein expression in tumor tissues was done with the use of the Vectastain avidin-biotin complex method kit (Vector Laboratories, Burlingame, Calif.) according to the manufacturer's instructions. This procedure uses biotinylated secondary antibodies and a preformed avidin: biotinylated enzyme complex that has been termed the avidin-biotin complex method technique. As the primary antibody, we used anti-CHOP antibody (Santa Cruz Biotechnology) diluted 1:100 in 2% normal goat blocking serum.

cellular translation = assay: Incorporation of 35S-methionine into newly translated proteins; type: cell-based; conditions: 2 h of treatment
[4] = test system: LN229 glioblastoma cell line; assay: MTT assay, LN229; type: cell-based, human; conditions: LN229, 48 h
Protocol: as §1, §2

[5] = Drug concentrations in plasma and tumor tissue by LC-MS; type: in vivo; conditions: 50 h; for Tumor tissue levels (approximately μmol/L) / Tumor tissue levels: U87 tumor tissue; for Maximum plasma levels: tumor-bearing nude mice
Protocol: Blood was collected in heparinized syringes using cardiac puncture of nude mice. The blood was allowed to settle at room temperature for 30 min followed by centrifugation at 2,000 rpm for 5 min at 4° C. The plasma was separated from the cells and transferred to a fresh tube. […] After thorough vortexing, plasma proteins were precipitated using 425 μL acetonitrile and vortexing for 1 min. The entire mixture was centrifuged at 4,500 rpm for 5 min to separate the protein precipitate, and 400 μL of the supernatant were transferred to a fresh tube. The sample was evaporated using a steady stream of air, and the dried residue was reconstituted using 150 μL of mobile phase consisting of 80:20 (v/v) methanol:10 mmol/L ammonium acetate (pH 4.5). To remove any undissolved precipitates, the samples were again centrifuged at 4,500 rpm for 5 min, and the supernatant was transferred to a fresh tube. Ten microliters of each sample were analyzed in duplicate by liquid chromatography mass spectrometry.
To determine the amount of drug in each sample, an Agilent 1100 high-pressure liquid chromatography system (Agilent Technologies, Santa Clara, Calif.) coupled onto a Sciex API 3000 triple quadruple tandem mass spectrometer (Applied Biosystems, Foster City, Calif.) was used. To separate the analytes, a Thermo HyPURITY C18 column (50×4.6 mm, 3 micron; Thermo Fisher Scientific, Inc., Waltham, Mass.) was used. The mobile phase consisted of 80:20 (v/v) methanol:10 mmol/L ammonium acetate (pH 4.5). […] The analytes were then introduced into the Sciex API 3000, which was set in the negative ion mode. […] The lower level of quantification of this assay was established at 5 ng/mL.

[6] = 30 mg/kg/d, average of two measurements
[7] = 30 mg/kg/d, half dose every 12 h into the stomach, average of two measurements
[8] = 90 mg/kg/d, average of two measurements
[9] = 90 mg/kg/d, half dose every 12 h into the stomach, average of two measurements
[10] = 150 mg/kg/d, average of two measurements
[11] = 150 mg/kg/d, half dose every 12 h into the stomach, average of two measurements
[12] = 180 mg/kg/d, average of two measurements
[13] = 180 mg/kg/d, half dose every 12 h into the stomach, average of two measurements

| SMILES | induction of CHOP protein (CHOP protein) | IC50 [1] | IC50 [2] | IC50 (U251 glioblastoma cells) | CHOP staining of tumor tissues ([3]; U87 xenograft) | sensitivity of LN229 compared with the other glioblastoma cell lines [4] | Tumor tissue levels (approximately μmol/L) ([5]; 30 mg/kg/d) | Tumor tissue levels [5, 6] | Maximum plasma levels ([5]; 30 mg/kg/d) | Maximum plasma levels [5, 7] | Tumor tissue levels (approximately μmol/L) ([5]; 90 mg/kg/d) | Tumor tissue levels [5, 8] | Maximum plasma levels ([5]; 90 mg/kg/d) | Maximum plasma levels [5, 9] | Tumor tissue levels (approximately μmol/L) ([5]; 150 mg/kg/d) | Tumor tissue levels [5, 10] | Maximum plasma levels ([5]; 150 mg/kg/d) | Maximum plasma levels [5, 11] | Tumor tissue levels (approximately μmol/L) ([5]; 180 mg/kg/d) | Tumor tissue levels [5, 12] | also measured |
| --- | --- | --- | --- | --- | --- | --- | --- | --- | --- | --- | --- | --- | --- | --- | --- | --- | --- | --- | --- | --- | --- |
| Cc1ccc(-c2cc(C(F)(F)F)nn2-c2ccc(S(N)(=O)=O)cc2)cc1 [celecoxib, 4-[5-(4-methylphenyl)-3-(trifluoromethyl)-1H-pyrazol-1-yl]benzenesulfonamide] | potently induce CHOP | ~50 µM | ~50 µM | ~50 µM | positive for CHOP | slightly less sensitive | ~0.046 µmol/L | 17.53 ng/mg | 18.2 µmol/L | 6,950 μg/L | ~0.116 µmol/L | 44.03 ng/mg | 24.8 µmol/L | 9,450 μg/L | ~0.161 µmol/L | 61.23 ng/mg | 36.8 µmol/L | 14,000 μg/L | ~0.25 µmol/L | 94.78 ng/mg | detectable effect on cell growth and survival (MTT) (U251 glioblastoma cells; U251, 48 hours, concentrations of up to 100 μmol/L): reduced the viability of the cell culture; reduction of ongoing translation (cellular translation; 80 μmol/L): ~90%; Tumor tissue levels (approximately μmol/L) ([5]; 180 mg/kg/d, listed as Cxb): ~0.249 µmol/L; Maximum plasma levels ([5]; 180 mg/kg/d): 45 µmol/L; Maximum plasma levels ([5]; 180 mg/kg/d, listed as Cxb): 44.6 µmol/L; Maximum plasma levels [5, 13]: 17,000 μg/L |
| Cc1ccc(C)c(-c2cc(C(F)(F)F)nn2-c2ccc(S(N)(=O)=O)cc2)c1 [DMC, 4-[5-(2,5-dimethylphenyl)-3-(trifluoromethyl)-1H-pyrazol-1-yl]benzenesulfonamide] | potently induce CHOP | < 40 µM | < 40 µM | < 40 µM | positive for CHOP | slightly less sensitive | ~0.021 µmol/L | 8.27 ng/mg | 7.6 µmol/L | 3,035 μg/L | ~0.037 µmol/L | 14.44 ng/mg | 8.0 µmol/L | 3,190 μg/L | ~0.099 µmol/L | 39.04 ng/mg | 23.8 µmol/L | 9,500 μg/L | ~0.280 µmol/L | 110.42 ng/mg | cellular activity in MTT assays (U251 glioblastoma cells; U251, 30 and 50 μmol/L, 48 hours): reduced cellular activity; CHOP expression in tumor tissue ([3]; U87MG xenograft, 1 mg/kg BZM and 7.5 mg/kg DMC individually or in combination, 50 h): did not cause much elevated CHOP expression; CHOP protein expression in tumor tissue ([3]; U87 xenograft, animals fed drug for 50 h): large increase in CHOP protein expression; reduction of ongoing translation (cellular translation; 60 μmol/L): ~90%; Maximum plasma levels ([5]; 180 mg/kg/d): 45 µmol/L and 45.5 µmol/L; Maximum plasma levels [5, 13]: 18,200 μg/L |
